From ChEMBL document CHEMBL1240432, “Synthesis and preliminary bioactivity assays of 3,4-dichloro-5-(omega-hydroxyalkylamino)-2(5H)-furanones” (Eur J Med Chem, 2010) come the findings set out here.

Some results are limits rather than exact numbers.

One assay concerns Plasmodium falciparum. In words: Antiprotozoal activity against Plasmodium falciparum K1 infected in human erythrocytes at 4.8 ug/m after 72 hrs by [3H]hypoxanthine incorporation. It is filed as functional.
The subject of assay [1] is Trypanosoma brucei rhodesiense. Put plainly: Antiprotozoal activity against Trypanosoma brucei rhodesiense STIB900 at 4.8 ug/mL by microplate alamar blue assay. The assay is classed as functional.
In assay [2] the test system is Mycobacterium tuberculosis. In words: Antitubercular activity against Mycobacterium tuberculosis H37Rv by microplate alamar blue assay. It is filed as functional, organism-based.
A further assay has as its system Leishmania donovani. Put plainly: Antiprotozoal activity against Leishmania donovani MHOM/ET/67/L82 at 4.8 ug/m after 72 hrs by fluorimetry. The assay is classed as functional.
The test system of a further assay is Trypanosoma cruzi. Put plainly: Antiprotozoal activity against Trypanosoma cruzi Tulahuen C2C4 infected in rat skeletal myoblast at 4.8 ug/ml after 48 hrs. It is filed as functional. To be noted: Tulahuen C2C4, 48 h.

As for `C[C@@H]1CC[C@H]2[C@@H](C)C(=O)O[C@@H]3O[C@@]4(C)CC[C@@H]1[C@]32OO4` [ARTEMISININ], the “inhibition (INH)” value in the assay on Plasmodium falciparum amounted to 100%.

In turn, `Nc1nc(N)nc(Nc2ccc([As]3SCC(CO)S3)cc2)n1` (stereo unspecified) [MELARSOPROL] showed an inhibition at 4.8 µg/mL in assay [1] of 98.2%. In assay [2], `O=C1OC(NCC(O)CO)C(Cl)=C1Cl` (stereo unspecified) had an IC50 above 100 µg/mL and a 90% effect concentration (IC90) above 100 µg/mL. With `CCCCCCCCCCCCCCCCOP(=O)([O-])OCC[N+](C)(C)C` [MILTEFOSINE], the “inhibition (INH)” value in the assay with Leishmania donovani was 92.5%. As for `O=C(Cn1ccnc1[N+](=O)[O-])NCc1ccccc1` [BENZNIDAZOLE], in the assay on Trypanosoma cruzi, the inhibition at 4.8 µg/mL was 89.6%.
